Two compounds from US11952354B1, “5-((2-isopropyl-5-methylphenoxy)methyl)-3-(naphthalen-2-yl)-1,2,4-oxadiazole as an anti-cancer and antimicrobial compound” (KING FAISAL UNIVERSITY, priority 2023, dated 2024) can be followed below.

Molecules are shown by their SMILES.

Series [1] deals with Chrysosporium keratinophilum. As to the kind of experiment: agar plate disc-diffusion, antifungal inhibition zone. The format is cell-based. Here is the method: (§1) The agar plate disc-diffusion method was applied. […] The discs were then placed onto the surface of agar plates (nutrient agar for bacteria and Sabouraud's dextrose agar for fungi) seeded with the test organism. Each plate contained 15 mL of the agar medium, previously seeded with 0.2 mL of the broth culture of each organism pregrown for 18 hours. The plates were incubated at 37° C. for 48 h, and 72 h for fungi. The inhibition zones were measured in mm. Discs impregnated with DMSO were used as a control, and its inhibition zone was subtracted from the tested compound actual inhibition zone.

The subject of another series is Aspergillus flavus. Described as above. Type of series: cell-based. The method, then: as §1
The next series deals with Escherichia coli. Put plainly: agar plate disc-diffusion, antibacterial inhibition zone. The format is cell-based. Here is the method: as §1
The subject of another series is Bacillus Cereus. Described as above. The format is cell-based. Here is the method: as §1
Another series relates to Staphylococcus aureus. The description is as above. The format is cell-based. Here is the method:
as §1

A further series relates to Pseudomonas aeruginosa. The series is described as above. Type of series: cell-based. Here is the method: as §1
In series [2] the test system is human prostate cancer cells (PC3). As to the kind of experiment: cytotoxicity by SRB assay. The note with it: 0.01 μM to 100 μM for 72 h. The format is cell-based. An excerpt: (§2) The anticancer activity of the described synthesized compounds against highly aggressive androgen-independent metastatic human prostate cancer cells (PC3) and osteosarcoma (MG-63) cells. The human prostate cancer cells (PC3) and human osteosarcoma cells (MG-63) were obtained from Nawah Scientific Inc. (Mokatam, Cairo, Egypt) and cultured in DMEM (Dulbecco's modified eagle's medium), Gibco, USA, supplemented with fetal bovine serum (FBS) at a concentration of 10% and 100 U/mL of penicillin and streptomycin (PS). The Cells were incubated at 37° C. in a humidified environment that contained 5% CO2.
(§3) Cells were seeded in 96-well plates as aliquots of 100 μL cell suspension and incubated in a complete media for 24 h. afterward, cells were treated with 5-((2-isopropyl-5-methylphenoxy)methyl)-3-(naphthalen-2-yl)-1,2,4-oxadiazole at diverse concentrations ranging from 0.01 μM to 100 μM for 72 h. Then, cells were fixed at 4° C. for one hour with 150 μL of 10% trichloroacetic acid (TCA). […] Then, 150 μL of Tris pH 10.5 (10 mM) was added, and the absorbance was measured at 540 nm using a BMG LABTECH®-FLUOstar Omega microplate reader (Ortenberg, Germany). Half maximal inhibitory concentrations (IC50) values were calculated for each experiment using GraphPad Prism 6 software. […]
(§4) The inhibition was calculated using the following equation: Inhibition %=100−Average Viability

Series [3] concerns human osteosarcoma cells (MG-63). As to the kind of experiment: cytotoxicity by SRB assay. The format is cell-based. The settings on record: MG-63 cells, 0.01 μM to 100 μM for 72 h.
Text: as §2, §3, §4

The test system of the next series is different microbes. As to the kind of experiment: agar plate disc-diffusion, overall antimicrobial activity. The format is cell-based. The note with it: against different microbes (bacteria and fungi). Here is the method: The agar plate disc-diffusion method was applied. Sterilized filter papers (6 mm in diameter) were wetted with 10 μL of a solution of 5-((2-isopropyl-5-methylphenoxy)methyl)-3-(naphthalen-2-yl)-1,2,4-oxadiazole (3) to be tested, containing 10 mg/mL in DMSO, and the discs were allowed to air dry. The discs were then placed onto the surface of agar plates (nutrient agar for bacteria and Sabouraud's dextrose agar for fungi) seeded with the test organism. Each plate contained 15 mL of the agar medium, previously seeded with 0.2 mL of the broth culture of each organism pregrown for 18 hours. The plates were incubated at 37° C. for 48 h, and 72 h for fungi. The inhibition zones were measured in mm. Discs impregnated with DMSO were used as a control, and its inhibition zone was subtracted from the tested compound actual inhibition zone.

Setting [4] is: A = concentration of comp. = 10,000 μL.
The mark [5] stands for this setting: B = concentration of comp. = 30,000 μL.
The mark [6] stands for this setting: C = concentration of comp. = 50,000 μL.

For `O=C(O)c1cn(C2CC2)c2cc(N3CCNCC3)c(F)cc2c1=O` [Cip., ciprofloxacin, reference compound], the inhibition zone is listed as 29 mm in series [1] (setting [4]); 30 mm in [1] (setting [5]); 53 mm in series [1] (setting [6]); 29 mm in the series on Aspergillus flavus (setting [4]); 30 mm in the series on Aspergillus flavus (setting [5]); 42 mm in the series on Aspergillus flavus (setting [6]). Moreover, the inhibition zone with Escherichia coli (setting [4]) was determined as 30 mm; with Escherichia coli (setting [5]), 39 mm; with Escherichia coli (setting [6]) it was 60 mm; in the series on Bacillus Cereus (setting [4]), 29 mm; in the series on Bacillus Cereus (setting [5]), 30 mm; with Bacillus Cereus (setting [6]) it was 42 mm. For the same compound, the inhibition zone with Staphylococcus aureus (setting [4]) was determined as 43 mm; in the series with Staphylococcus aureus (setting [5]), 44 mm; in the series with Staphylococcus aureus (setting [6]), 53 mm; with Pseudomonas aeruginosa (setting [4]), 29 mm; in the series on Pseudomonas aeruginosa (setting [5]), 30 mm; with Pseudomonas aeruginosa (setting [6]) it was 53 mm.

In turn, `Cc1ccc(C(C)C)c(OCc2nc(-c3ccc4ccccc4c3)no2)c1` [compound 3, 5-((2-isopropyl-5-methylphenoxy)methyl)-3-(naphthalen-2-yl)-1,2,4-oxadiazole] came in with a melting point of 187 to 188 °C. Besides, the antiproliferative activity entry in series [2] is on record as “excellent antiproliferative activities”. For the same compound, in series [3], the antiproliferative activity entry is listed as “excellent antiproliferative activities”. The same compound gave an inhibition zone in series [1] (setting [4]) of 26 mm. In series [1] (setting [5]), the inhibition zone is 29 mm. The compound also had an inhibition zone in series [1] (setting [6]) of 45 mm. The same compound returned an inhibition zone with Aspergillus flavus (setting [4]) of 20 mm. This compound also registered an inhibition zone in the series with Aspergillus flavus (setting [5]) of 25 mm. The inhibition zone in the series on Aspergillus flavus (setting [6]) is 33 mm. The antimicrobial activity entry with different microbes is on record as “excellent antimicrobial activities”. Besides, the inhibition zone in the series with Escherichia coli (setting [4]) stood at 28 mm. In the series on Escherichia coli (setting [5]), this compound came in with an inhibition zone of 34 mm. In addition, the inhibition zone in the series with Escherichia coli (setting [6]) was 49 mm. The inhibition zone in the series with Bacillus Cereus (setting [4]) is listed as 24 mm. Also, the inhibition zone in the series with Bacillus Cereus (setting [5]) came to 27 mm. In the series with Bacillus Cereus (setting [6]), this compound gave an inhibition zone of 38 mm. The inhibition zone in the series on Staphylococcus aureus (setting [4]) amounted to 17 mm. The compound further gave an inhibition zone with Staphylococcus aureus (setting [5]) of 24 mm. This compound yielded an inhibition zone in the series on Staphylococcus aureus (setting [6]) of 32 mm. The compound further came in with an inhibition zone with Pseudomonas aeruginosa (setting [4]) of 25 mm. In the series with Pseudomonas aeruginosa (setting [5]), the inhibition zone amounted to 29 mm. Besides, the inhibition zone in the series with Pseudomonas aeruginosa (setting [6]) came to 40 mm.
